Entries after “also recorded” stand apart in the source; their conditions may differ.
Columns and labels:
Assay type in all cases: physicochemical
[1] = Benzene levels formed by crystalline benzoyl peroxide on incubation (headspace GC-MS); settings: incubated at 50° C. for up to 12 days; FIG. 11
Text: (§1) The method USP <467> Residual Solvents Procedure A was modified from flame ionization detection (FID) to mass spectrometry (MS) detection for benzene in benzoyl peroxide products. […] Identification of benzene was based on the retention time matching to certified reference standards and mass spectral m/z matching to benzene.

[2] = Effect of antioxidants on benzene levels in FDA-approved benzoyl peroxide drug products (headspace GC-MS); settings: antioxidant added to commercial drug products; 50° C. for 2 days; FIG. 5
Text: as §1

[3] = Effect of antioxidants on benzene levels in 10% w/v benzoyl peroxide formulations (headspace GC-MS); settings: 10% w/v benzoyl peroxide plus antioxidant
Text: Agilent 7890B Gas Chromatography (GC) system equipped with 7697A headspace autosampler coupled with 5977B Mass Selective Detector (MS) was used for sample analysis, and a DB-Select 624 UI, 60 m×0.32 mm×1.8 μm GC column (Agilent Technology, Santa Clara, CA) was used to separate benzene from other compounds. Dimethyl sulfoxide (DMSO, GC Headspace Grade) was used for sample preparation (Thermo Fisher Scientific, Waltham, MA). All certified reference standards, solution, and buffer reagents including sodium citrate dihydrate, citric acid, tris, and glycerol were sourced from Sigma-Aldrich, St. Louis, MO.
For benzoyl peroxide stability studies in glycerol, benzoyl peroxide was prepared in a stock suspension of 20% w/v in glycerol and mixed 1:1 with 20% w/v suspensions or v/v solutions of antioxidants in glycerol. For pH experiments, the same stock suspension of benzoyl peroxide was mixed 1:1 with a 50% glycerol solution with 200 mM buffering agent (Citrate buffer pH 3.0, Tris Buffer pH 7.0, or Tris Buffer pH 9.0) for final 75% glycerol solution. The final volume of all reactions was 100 μL in GC headspace vials with 10% solution benzoyl peroxide (10 mg) and 10% antioxidant or 100 mM buffering agent. Vials were immediately crimp sealed for incubation. For analysis, 4.9 mL of DMSO was added to make up the final volume to approximate 5 mL, crimp sealed, and gently vortexed to mix.
Benzene standard was diluted in DMSO for an 11-point calibration ranging from 10 ng/vial to 100 μg/vial. The coefficient of determination R^2 were greater than 0.999. Five (5) mL of DMSO was used for negative control samples.
Benzoyl peroxide products in original packaging were incubated for up to one month at 25° C., 37° C., or 50° C. and sampled periodically. Benzoyl peroxide and products with antioxidant additions or buffering agent additions were prepared and incubated in crimp sealed GC headspace vials.
The method USP <467> Residual Solvents Procedure A was modified from flame ionization detection (FID) to mass spectrometry (MS) detection for benzene in benzoyl peroxide products. The gas chromatography (GC) methods were also modified to allow shorter run time and the method was validated for addition of up to 500 mg benzoyl peroxide product or […] glycerol. Identification of benzene was based on the retention time matching to certified reference standards and mass spectral m/z matching to benzene. Lower limit of detection (LLOD) was 10 ng (equivalent to 0.02 ppm in hand benzoyl peroxide products) and LLOQ was 25 μg. The measurement uncertainty was determined to be 20%.
10% w/v benzoyl peroxide formulations were prepared. […]

[4] = Effect of solvents on benzene levels in 10% w/v benzoyl peroxide formulations (headspace GC-MS); settings: 10% benzoyl peroxide in the solvent; 37° C. for 10 days; compared to glycerol or NMP; FIG. 8
Protocol: as §1
10% w/v benzoyl peroxide formulations were prepared. […] Benzene levels in each formulation were tested at various time points according to the protocols described in Example 1.

[5] = 37° C. for up to two weeks, FIG. 3
[6] = 50° C. for up to two weeks, FIG. 4

SMILES | levels of benzene formed in two FDA-approved drug products with added antioxidant [2] | levels of benzene formed in the formulations [3, 5] | levels of benzene formed in the formulations [3, 6] | levels of benzene formed in the formulations [4] | other results
O=C(OOC(=O)c1ccccc1)c1ccccc1 [crystalline benzoyl peroxide, benzoyl peroxide] |  |  |  |  | levels of benzene formed [1]: may be protected from forming benzene levels
CC(C)(C)c1cc(O)ccc1O [TBHQ, tert-butyl hydroquinone] | reduce the degradation of benzoyl peroxide to benzene |  |  |  | 
Cc1cc(C(C)(C)C)c(O)c(C(C)(C)C)c1 [BHT, butylated hydroxytoluene] | reduce the degradation of benzoyl peroxide to benzene | reduced the levels of benzene; also recorded: most dramatic reduction | reduced the levels of benzene; also recorded: most dramatic reduction |  | 
O [water] |  |  |  | most dramatic reduction in, or complete prevention of, benzene levels | 
C[S+](C)[O-] [DMSO, dimethylsulfoxide] |  |  |  | most dramatic reduction in, or complete prevention of, benzene levels | 
CC(=O)Oc1c(C)c(C)c2c(c1C)CCC(C)(CCC[C@H](C)CCC[C@H](C)CCCC(C)C)O2 (stereo partly drawn) [vitamin E acetate] |  | reduced the levels of benzene | reduced the levels of benzene |  | 
